Values joined by “and” are separate entries in the source; they are usually repeats but may differ in a detail not shown here. Identical values can stand only once. Counter-ions that a name gives are not always drawn. Like-named read-outs stand apart in the source and are kept apart here. A value given as a limit tells only on which side of the number the result lay.

Data on 7 compounds can be found in patent publication US20210330611A1, “THERAPY FOR NEUROLOGICAL DISEASES/DISORDERS” (priority 2020, published 2021).

The test system of series [1] is LPS-induced microglia activation. In words: Image-based assay of LPS-induced microglia activation (HTS and dose response). Type of series: cell-based, rat. The conditions noted are these: Rattus norvegicus, Microglia; for inhibition at 10 µM: primary microglia HTS, LPS stimulation, increased cell size (>800 μm^2) as marker of activation, read-out: LPS % inhibition.
A short description of series [2]: in vitro. As to conditions: rat.
For series [3], the system named is primary rat microglia. In words: Cell toxicity (dead cells, size <150 μm2) in LPS assay. The conditions noted are these: for LPS % cell toxicity: primary microglia HTS, LPS stimulation, decreased size (<150 μm^2) as marker of toxicity; for IC50: read-out: Cell Toxicity IC50 (uM) [LPS assay], LPS assay.
In series [4] the test system is fibrin-induced microglia activation. As to the kind of experiment: Image-based assay of fibrin-induced microglia activation (HTS and dose response). Type of series: cell-based, rat. As to conditions: for IC50 / inhibition at 10 µM: Rattus norvegicus, Microglia; for inhibition at 10 µM: primary microglia HTS, fibrin stimulation, increased cell size (>800 μm^2) as marker of activation, read-out: Fibrin % inhibition.

Series [5] deals with primary rat microglia. In words: Cell toxicity (dead cells, size <150 μm2) in coated fibrin (cFib) assay.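 As to Fibrin % cell toxicity: share of dead cells sized under 150 µm2 at 10 µM in fibrin-stimulated microglia HTS.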 As to conditions: primary microglia HTS, fibrin stimulation; decreased size (<150 μm^2) as marker of toxicity.
Series [6] deals with fibrin- and LPS-induced microglia activation. As to the kind of experiment: cells. The series is classed as cell-based, rat. The conditions noted are these: for inhibition at 10 µM: Rattus norvegicus.
The nature of series [7]: in vitro. As to conditions: rat, Cell Toxicity IC50 (uM) [cFib assay].
The mark [8] stands for this setting: 48 h, Table 1, dose response 0.001-20 μM, triplicates, primary rat microglia, 48 h, read-out: LPS IC50.
Where [9] appears, read: LPS-induced microglia activation, dose response, read-out: LPS IC50 (uM) (Suppl. Table 7).
[10] abbreviates: dose response, LPS-induced microglia activation, read-out: LPS IC50.
Setting [11] is: 48 h, Table 1, dose response 0.001-20 μM, triplicates, primary rat microglia, 48 h, read-out: Fibrin IC50.
[12] abbreviates: dose response, fibrin-induced microglia activation, read-out: Fibrin IC50.
Setting [13] is: fibrin-induced microglia activation, dose response, read-out: Fibrin IC50 (uM) (Suppl. Table 7).
Where [14] appears, read: HTS of 1907 compounds, quadrant by fibrin and LPS inhibition.
Setting [15] is: Microglia, HTS hit classification, read-out: Hit.
The mark [16] stands for this setting: hit classification in microglia HTS, read-out: Cherry-picked Hit (Suppl. Table 7).
Where [17] appears, read: quadrant by fibrin and LPS inhibition in HTS of 1907 compounds.
[18] abbreviates: Table 3, read-out: LPS IC50 (uM) (Suppl. Table 7).
[19] abbreviates: Table 3, read-out: Fibrin IC50 (uM) (Suppl. Table 7).
[20] abbreviates: Microglia, Table 3, read-out: Cherry-picked Hit (Suppl. Table 7).

A word on the IC50: it is the point on the concentration scale where inhibition reaches its midpoint. In the case of `CCOC(=O)[N-]c1cn(N2CCOCC2)n[o+]1` [Molsidomine, reference compound], the IC50 (in series [1] (setting [8]); in series [1] (setting [9]); in series [1] (setting [10]); in “in vitro [2]”; in series [4] (setting [11]); in series [4] (setting [12])) was above 20 µM each time. The IC50 (in series [4] (setting [13]); in “in vitro [7]” (cFib assay)) was above 20 µM in each case. Also, the inhibition at 10 µM is 124% in series [1] (48 h), 103% in series [4], above 50% in series [6] (setting [15]) and above 50% in series [6] (setting [16]). Moreover, in the series on primary rat microglia [3], the “LPS % cell toxicity” value is on record as 5%. For the same compound, in the series with primary rat microglia [5], the “Fibrin % cell toxicity” value is given as 2%. The “Quadrant (FIG. 5b)” value in series [6] (setting [14]) was “Q2”; in series [6] (Table 1, screen at 10 μM) it was “Q2”; in series [6] (setting [17]), “Q2”.

`COc1c(C)c2c(c(O)c1C/C=C(\C)CCC(=O)OCCN1CCOCC1)C(=O)OC2` [Mycophenolate mofetil, reference compound]: the concentration for half-maximal inhibition (IC50) in series [1] (setting [8]) is 1 µM; in series [1] (setting [9]), 1 µM; in series [1] (setting [10]), 1 µM; in “in vitro [2]”, above 20 µM; in series [4] (setting [11]), 2 µM; in series [4] (setting [12]), 2 µM. In addition, the IC50 is 2 µM in series [4] (setting [13]) and above 20 µM in “in vitro [7]” (cFib assay). In addition, the inhibition at 10 µM was 79% in series [1] (48 h), 94% in series [4], above 50% in series [6] (setting [15]) and above 50% in series [6] (setting [16]). For the same compound, the “LPS % cell toxicity” value with primary rat microglia [3] came to 2%. In the series with primary rat microglia [5], the “Fibrin % cell toxicity” value worked out at 2%. Also, the “Quadrant (FIG. 5b)” value in series [6] (setting [14]) is “Q2”; in series [6] (Table 1, screen at 10 μM) it was “Q2”; in series [6] (setting [17]), “Q2”.

With `COc1c(C)c2c(c(O)c1C/C=C(\C)CCC(=O)O)C(=O)OC2` [Mycophenolic acid, reference compound], the IC50 is 1 µM in series [1] (setting [8]); 1 µM in series [1] (setting [9]); 1 µM in series [1] (setting [10]); above 20 µM in the series “in vitro [2]”; 1 µM in series [4] (setting [11]); 1 µM in series [4] (setting [12]). For the same compound, the concentration for half-maximal inhibition (IC50) in series [4] (setting [13]) was 1 µM; in the series “in vitro [7]” (cFib assay) it was above 20 µM. Moreover, the inhibition at 10 µM is 91% in series [1] (48 h), 94% in series [4], above 50% in series [6] (setting [15]) and above 50% in series [6] (setting [16]). Also, the “LPS % cell toxicity” value in the series with primary rat microglia [3] was found to be 2%. Besides, in the series with primary rat microglia [5], the “Fibrin % cell toxicity” value is reported as 1%. The “Quadrant (FIG. 5b)” value in series [6] (setting [14]) is given as “Q2”; in series [6] (Table 1, screen at 10 μM) it was “Q2”; in series [6] (Table 2, screen at 10 μM), “Q2”; in series [6] (setting [17]), “Q2”. Besides, the Activity entry in series [6] (Table 7, fib = fibrin, LPS, tox = toxicity) is listed as “fib/LPS”.

Turning to `COc1ccccc1N1CCN(CC(O)COc2cccc3ccccc23)CC1` (stereo not shown) [Naftopidil dihydrochloride, reference compound], the IC50 (in series [1] (setting [8]); in series [1] (setting [9]); in series [1] (setting [18]); in series [1] (setting [10]); in “in vitro [2]”; in the series on primary rat microglia [3]) was above 20 µM throughout. Moreover, the IC50 is 7 µM in series [4] (setting [11]); 7 µM in series [4] (setting [19]); 7 µM in series [4] (setting [12]); 7 µM in series [4] (setting [13]); above 20 µM in “in vitro [7]” (Table 3); above 20 µM in “in vitro [7]” (cFib assay). Moreover, the inhibition at 10 µM in series [1] (48 h) was 32%; in series [4], 59%; in series [6] (setting [20]), above 50%; in series [6] (setting [15]) it was above 50%. Further, the “LPS % cell toxicity” value in the series on primary rat microglia [3] amounted to 0%. Besides, in series [4], the “Fibrin Selectivity” value is given as 3. Further, in series [4], the “Fibrin Selectivity (LOG10)” value was found to be 0.45. Moreover, in the series on primary rat microglia [5], the “Fibrin % cell toxicity” value came out at 1%. Moreover, the “Quadrant (FIG. 5b)” value in series [6] (setting [14]) is “Q3”; in series [6] (Table 1, screen at 10 μM), “Q3”; in series [6] (Table 3, screen at 10 μM) it was “Q3”; in series [6] (setting [17]), “Q3”.

For the compound `CCOC(=O)O[C@]1(C(=O)COC(=O)CC)CC[C@H]2[C@@H]3CCC4=CC(=O)C=C[C@]4(C)[C@H]3[C@@H](O)C[C@@]21C` [Prednicarbate, reference compound], the IC50 in series [1] (setting [8]) is above 20 µM; in series [1] (setting [9]), above 20 µM; in series [1] (setting [18]) it was above 20 µM; in series [1] (Table 6, read-out: LPS IC50 (uM) (Suppl. Table 7)), above 20 µM; in series [1] (setting [10]), above 20 µM; in the series “in vitro [2]”, above 20 µM. For the same compound, the half-maximal inhibitory concentration (IC50) is above 20 µM in the series on primary rat microglia [3]; above 20 µM in the series with primary rat microglia [3] (Table 6); 0.002 µM in series [4] (setting [11]); 0.002 µM in series [4] (setting [19]); 0.002 µM in series [4] (Table 6, read-out: Fibrin IC50 (uM) (Suppl. Table 7)); 0.002 µM in series [4] (setting [12]). Further, the 50% inhibitory concentration (IC50) in series [4] (setting [13]) is 0.002 µM; in “in vitro [7]” (Table 3) it was above 20 µM; in the series “in vitro [7]” (cFib assay), above 20 µM; in “in vitro [7]” (cFib assay, Table 6), above 20 µM. In addition, the inhibition at 10 µM was 73% in series [1] (48 h), 61% in series [4], above 50% in series [6] (setting [20]) and above 50% in series [6] (setting [15]). Besides, in the series with primary rat microglia [3], the “LPS % cell toxicity” value turned out to be 1%. In addition, the “Fibrin Selectivity” value in series [4] was found to be 8510. Besides, in series [4], the “Fibrin Selectivity (LOG10)” value stood at 3.93. For the same compound, in the series on primary rat microglia [5], the “Fibrin % cell toxicity” value turned out to be 1%. The “Quadrant (FIG. 5b)” value in series [6] (setting [14]) is “Q2”; in series [6] (Table 1, screen at 10 μM), “Q2”; in series [6] (Table 3, screen at 10 μM), “Q2”; in series [6] (microglia HTS, Table 6) it was “Q2”; in series [6] (setting [17]), “Q2”.

Take `C[C@]12C=CC(=O)C=C1CC[C@@H]1[C@@H]2C(=O)C[C@@]2(C)[C@H]1CC[C@]2(O)C(=O)CO` [Prednisone, reference compound]: the half-maximal inhibitory concentration (IC50) (in series [1] (setting [8]); in series [1] (setting [9]); in series [1] (setting [18]); in series [1] (setting [10]); in the series “in vitro [2]”; in the series with primary rat microglia [3]) was above 20 µM each time. Also, the half-maximal inhibitory concentration (IC50) in the series “in vitro [7]” (Table 3) and in “in vitro [7]” (cFib assay) was above 20 µM throughout. Further, the inhibition at 10 µM in series [1] (48 h) is 45%; in series [4], 66%; in series [6] (setting [20]), above 50%; in series [6] (setting [15]), above 50%. Also, in the series with primary rat microglia [3], the “LPS % cell toxicity” value was 1% and 0%. Further, the “Fibrin Selectivity” value in series [4] is given as 6. Besides, in the series with primary rat microglia [5], the “Fibrin % cell toxicity” value is 1% and 2%. Further, the “Quadrant (FIG. 5b)” value in series [6] (setting [14]) is on record as “Q3”; in series [6] (Table 1, screen at 10 μM), “Q3”; in series [6] (Table 3, screen at 10 μM), “Q3”; in series [6] (setting [17]), “Q3”.

Regarding `CC(CCc1ccc(O)cc1)NCC(O)c1ccc(O)cc1` (stereo not shown) [Ractopamine hydrochloride, reference compound], the IC50 in series [1] (setting [8]) was above 20 µM; in series [1] (setting [9]), above 20 µM; in series [1] (setting [10]) it was above 20 µM; in the series “in vitro [2]”, above 20 µM; in series [4] (setting [11]) it was 20 µM; in series [4] (setting [12]), 20 µM. Also, the half-maximal inhibitory concentration (IC50) in series [4] (setting [13]) was 20 µM; in “in vitro [7]” (cFib assay) it was above 20 µM. The inhibition at 10 µM was 39% in series [1] (48 h), 50% in series [4], above 50% in series [6] (setting [15]) and above 50% in series [6] (setting [16]). Moreover, in the series on primary rat microglia [3], the “LPS % cell toxicity” value came out at 0%. For the same compound, the “Fibrin % cell toxicity” value in the series with primary rat microglia [5] is recorded as 1%. In addition, the “Quadrant (FIG. 5b)” value is reported as “Q3” in series [6] (setting [14]); “Q3” in series [6] (Table 1, screen at 10 μM); “Q3” in series [6] (setting [17]).
